Results as given in patent US10683294B2, “5-5 fused rings as C5a inhibitors” (CHEMOCENTRYX, INC., priority 2017, dated 2020).

Biological target: C5aR (Homo sapiens (Human), UniProt P21730)
Test: Chemotaxis assay (inhibition of C5aR mediated migration towards C5a)
Format: cell-based
Details: inhibition in the chemotaxis assay (Example 14 B.3); U937 or neutrophil cells, 0.03 nM C5a
Method: U937 cells are a monocytic cell line which express C5aR, and are available from ATCC (VA). These cells were cultured as a suspension in RPMI-1640 medium supplemented with 2 mM L-glutamine, 1.5 g/L sodium bicarbonate, 4.5 g/L glucose, 10 mM HEPES, 1 mM sodium pyruvate, and 10% FBS. Cells were grown under 5% CO2/95% air, 100% humidity at 37° C. and subcultured twice weekly at 1:6 (cells were cultured at a density range of 1×10^5 to 2×10^6 cells/mL) and harvested at 1×10^6 cells/mL. Prior to assay, cells are treated overnight with 0.5 mM of cyclic AMP (Sigma, Ohio) and washed once prior to use. cAMP treated U937 cells can be used in C5aR ligand binding and functional assays.
Optionally, human or murine neutrophils can be used to assay for compound activity. Neutrophils may be isolated from fresh human blood using density separation and centrifigation. Briefly, whole blood is incubated with equal parts 3% dextran and allowed to separate for 45 minutes. After separation, the top layer is layered on top of 15 mls of Ficoll (15 mls of Ficoll for every 30 mls of blood suspension) and centrifuged for 30 minutes at 400×g with no brake. The pellet at the bottom of the tube is then isolated and resuspended into PharmLyse RBC Lysis Buffer (BD Biosciences, San Jose, Calif.) after which the sample is again centrifuged for 10 minutes at 400×g with brake. The remaining cell pellet is resuspended as appropriate and consists of isolated neutrophils.
Optionally, compounds may be further assayed for their ability to inhibit chemotaxis in cells. Chemotaxis assays are performed using 5 μm pore polycarbonate, polyvinylpyrrolidone-coated filters in 96-well chemotaxis chambers (Neuroprobe; Gaithersburg, Md.) using chemotaxis buffer (Hank's balanced salt solution (HBSS) and 1% FBS). C5aR ligands (i.e., C5a, R&D Systems; Minneapolis, Minn.) are use to evaluate compound mediated inhibition of C5aR mediated migration. Other chemokines (i.e., SDF-1α; R&D Systems; Minneapolis, Minn.) are used as specificity controls. The lower chamber is loaded with 29 μl of chemokine (i.e., 0.03 nM C5a) and varying amounts of compound; the top chamber contains 100,000 U937 or neutrophil cells in 20 μl. The chambers are incubated 1.5 hours at 37° C., and the number of cells in the lower chamber quantified either by direct cell counts in five high powered fields per well or by the CyQuant assay (Molecular Probes), a fluorescent dye method that measures nucleic acid content and microscopic observation.

Sequence of C5aR (P21730 whole entry): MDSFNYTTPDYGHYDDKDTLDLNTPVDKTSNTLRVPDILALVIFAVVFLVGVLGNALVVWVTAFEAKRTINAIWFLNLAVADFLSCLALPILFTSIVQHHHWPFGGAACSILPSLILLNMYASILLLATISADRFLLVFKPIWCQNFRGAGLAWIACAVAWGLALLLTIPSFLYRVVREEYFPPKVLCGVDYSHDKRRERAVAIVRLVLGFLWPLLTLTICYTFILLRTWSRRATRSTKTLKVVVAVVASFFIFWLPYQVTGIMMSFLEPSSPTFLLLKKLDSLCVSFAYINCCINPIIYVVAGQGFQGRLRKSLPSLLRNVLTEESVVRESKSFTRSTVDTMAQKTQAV

Row | SMILES | IC50
1 | Cc1cccc(C)c1-n1nc2c(c1-c1ccc3[nH]ccc3c1)CN(S(=O)(=O)c1ccc(C(C)(C)C)cc1)C2 [Compound 1.063] | ≥ 500 nM
2 | CCc1cccc(CC)c1-n1nc2c(c1-c1ccc(C(=O)O)c3[nH]ccc13)CN(Cc1ccc(C(F)(F)F)cc1C(F)(F)F)C2(C)C [Compound 1.005] | ≥ 500 nM
3 | CCc1cccc(CC)c1-n1nc2c(c1-c1ccc3[nH]ccc3c1)CN(C(c1ccccc1)C(C)(C)O)C2(C)C (stereo not shown) [Compound 1.049] | 50 to 500 nM
4 | Cc1cccc(C)c1-n1nc2c(c1-c1ccc3[nH]cnc3c1)CN(CC(C)(C)C)C2 [Compound 1.051] | ≥ 500 nM
5 | CCc1cccc(CC)c1-n1nc2c(c1-c1ccc(F)c3[nH]ccc13)CN(Cc1ccncc1)C2(C)C [Compound 1.014] | 50 to 500 nM
6 | Cc1cccc(C)c1-n1nc2c(c1-c1ccc3[nH]ccc3c1)CN(C(=O)OC(C)(C)C)C2=O [Compound 1.055] | ≥ 500 nM
7 | CCOC(C)(C)C(=O)N1Cc2nn(-c3c(C)cccc3C)c(-c3ccc4[nH]ccc4c3)c2C1 [Compound 1.054] | ≥ 500 nM
8 | CCc1cccc(CC)c1-n1nc2c(c1-c1ccc(F)c3[nH]ccc13)CN(Cc1ncco1)C2(C)C [Compound 1.008] | 50 to 500 nM
9 | CCc1cccc(CC)c1-n1nc2c(c1-c1ccc(F)c3[nH]ccc13)CN(CC(C)(C)O)C2(C)C [Compound 1.009] | 50 to 500 nM
10 | CCc1cccc(CC)c1-n1nc2c(c1-c1ccc(F)c3[nH]ccc13)CN(C(=O)CN)C2(C)C [Compound 1.006] | ≥ 500 nM
11 | CCc1cccc(CC)c1-n1nc2c(c1-c1ccc(F)c3[nH]ccc13)CN(Cc1cccnc1)C2(C)C [Compound 1.016] | 50 to 500 nM
12 | CCc1cccc(CC)c1-n1nc2c(c1-c1ccc(F)c3[nH]ccc13)CN(Cc1ccccc1C(F)(F)F)C2(C)C [Compound 1.029] | 5 to 50 nM
13 | CCc1cccc(CC)c1-n1nc2c(c1-c1cc(F)cc3[nH]ccc13)CN(Cc1ccc(C(F)(F)F)cc1C(F)(F)F)C2(C)C [Compound 1.031] | 5 to 50 nM
14 | CCc1cccc(CC)c1-n1nc2c(c1-c1cccc3[nH]ccc13)CN(Cc1cc(C(F)(F)F)ccc1C(F)(F)F)C2(C)C [Compound 1.038] | 5 to 50 nM
15 | CCc1cccc(CC)c1-n1nc2c(c1-c1ccc(F)c3[nH]cc(Cl)c13)CN(Cc1ccc(C(F)(F)F)cc1C(F)(F)F)C2(C)C [Compound 1.011] | 5 to 50 nM
16 | Cc1cccc(C)c1-n1nc2c(c1-c1ccc3[nH]ccc3c1)CN(C(=O)NC(C)(C)C)C2 [Compound 1.065] | ≥ 500 nM
17 | CCc1cccc(CC)c1-n1nc2c(c1-c1ccc3[nH]ccc3c1)CN(Cc1cc(Cl)ccc1Cl)C2(C)C [Compound 1.046] | 5 to 50 nM
18 | CCc1cccc(CC)c1-n1nc2c(c1-c1ccc(F)c3[nH]ccc13)CN(C(=O)CC(C)C)C2(C)C [Compound 1.030] | 5 to 50 nM
19 | Cc1cccc(C)c1-n1nc2c(c1-c1ccc3[nH]ccc3c1)CN(C(=O)C1CCCC1)C2 [Compound 1.059] | ≥ 500 nM

Row | SMILES | IC50
20 | CCc1cccc(CC)c1-n1nc2c(c1-c1cccc3[nH]ccc13)CN(C(=O)Cn1nc(C(F)(F)F)cc1C)C2(C)C [Compound 1.040] | ≥ 500 nM
21 | CCc1cccc(CC)c1-n1nc2c(c1-c1ccc(F)c3[nH]ccc13)CN(Cc1cc(C(F)(F)F)cc(C(F)(F)F)c1)C2(C)C [Compound 1.001] | 5 to 50 nM
22 | CCc1cccc(CC)c1-n1nc2c(c1-c1ccc(F)c3[nH]ccc13)CN(C(=O)c1ccccn1)C2(C)C [Compound 1.028] | 50 to 500 nM
23 | Cc1cccc(C)c1-n1nc2c(c1-c1ccc3[nH]ccc3c1)CN(CC(C)(C)C)C2(C)C [Compound 1.052] | 5 to 50 nM
24 | CCc1cccc(CC)c1-n1nc2c(c1-c1ccc3[nH]ccc3c1)CN(Cc1ccccc1C(F)(F)F)C2(C)C [Compound 1.047] | 5 to 50 nM
25 | CCc1cccc(CC)c1-n1nc2c(c1-c1cccc3[nH]cc(Cl)c13)CN(Cc1ccc(C(F)(F)F)cc1C(F)(F)F)C2(C)C [Compound 1.034] | 5 to 50 nM
26 | Cc1cccc(C)c1-n1nc2c(c1-c1ccc3[nH]ccc3c1)CN(C(=O)CC1CCCC1)C2 [Compound 1.057] | ≥ 500 nM
27 | Cc1cccc(C)c1-n1nc2c(c1-c1ccc3[nH]ccc3c1)CN(C(=O)OC(C)(C)C)C2 [Compound 1.067] | 50 to 500 nM
28 | CCc1cccc(CC)c1-n1nc2c(c1-c1cccc3[nH]ccc13)CN(Cc1ccccc1C(F)(F)F)C2(C)C [Compound 1.044] | 5 to 50 nM
29 | CCc1cccc(CC)c1-n1nc2c(c1-c1c(F)ccc3[nH]ccc13)CN(Cc1ccc(C(F)(F)F)cc1C(F)(F)F)C2(C)C [Compound 1.043] | 5 to 50 nM
30 | CCc1cccc(CC)c1-n1nc2c(c1-c1cccc3[nH]cc(F)c13)CN(Cc1ccc(C(F)(F)F)cc1C(F)(F)F)C2(C)C [Compound 1.010] | 5 to 50 nM
31 | CCc1cccc(CC)c1-n1nc2c(c1-c1cccc3[nH]ccc13)CN(Cc1cc(Cl)ccc1Cl)C2(C)C [Compound 1.042] | 5 to 50 nM
32 | CCc1cccc(CC)c1-n1nc2c(c1-c1ccc(F)c3[nH]ccc13)CN(Cc1ccc(F)cc1F)C2(C)C [Compound 1.013] | 5 to 50 nM
33 | Cc1cccc(C)c1-n1nc2c(c1-c1ccc3[nH]ccc3c1)CN(CC(C)(C)C)C2 [Compound 1.053] | 50 to 500 nM
34 | Cc1cccc(C)c1-n1nc2c(c1-c1ccc3[nH]ccc3c1)CN(C(=O)CC(C)(C)C)C2 [Compound 1.061] | ≥ 500 nM
35 | CCc1cccc(CC)c1-n1nc2c(c1-c1ccc(F)c3[nH]ccc13)CN(Cc1ccccn1)C2(C)C [Compound 1.019] | 5 to 50 nM
36 | Cc1cccc(C)c1-n1nc2c(c1-c1ccc3[nH]ccc3c1)CN(C(=O)c1ccc(C(C)(C)C)cc1)C2 [Compound 1.064] | ≥ 500 nM
37 | CCc1cccc(CC)c1-n1nc2c(c1-c1ccc(F)c3[nH]ccc13)CN(Cc1ccc(Cl)cc1Cl)C2(C)C [Compound 1.020] | 5 to 50 nM
38 | CCc1cccc(CC)c1-n1nc2c(c1-c1ccc(F)c3[nH]ccc13)CN(C(=O)NC(C)C)C2(C)C [Compound 1.003] | ≥ 500 nM

Further lines, results first:

Row | IC50 | SMILES
39 | 5 to 50 nM | CCc1cccc(CC)c1-n1nc2c(c1-c1ccc(F)c3[nH]ccc13)CN(Cc1cccc(F)c1)C2(C)C [Compound 1.018]
40 | < 5 nM | CCc1cccc(CC)c1-n1nc2c(c1-c1ccc(F)c3[nH]cc(Cl)c13)CN(Cc1ccc(F)cc1F)C2(C)C [Compound 1.017]
41 | 5 to 50 nM | CCc1cccc(CC)c1-n1nc2c(c1-c1cccc3[nH]cc(C#N)c13)CN(Cc1ccc(C(F)(F)F)cc1C(F)(F)F)C2(C)C [Compound 1.036]
42 | 5 to 50 nM | CCc1cccc(CC)c1-n1nc2c(c1-c1cccc3[nH]cc(C)c13)CN(Cc1ccc(C(F)(F)F)cc1C(F)(F)F)C2(C)C [Compound 1.035]
43 | < 5 nM | CCc1cccc(CC)c1-n1nc2c(c1-c1ccc(Cl)c3[nH]ccc13)CN(Cc1ccc(C(F)(F)F)cc1C(F)(F)F)C2(C)C [Compound 1.024]
44 | 5 to 50 nM | CCc1cccc(CC)c1-n1nc2c(c1-c1ccc(F)c3[nH]ccc13)CN(Cc1ccc(C(F)(F)F)cc1C(F)(F)F)C2(C)C [Compound 1.039]
45 | 5 to 50 nM | CCc1cccc(CC)c1-n1nc2c(c1-c1ccc3[nH]ccc3c1)CN(C(=O)OC(C)(C)C)C2(C)C [Compound 1.048]
46 | 5 to 50 nM | CCc1cccc(CC)c1-n1nc2c(c1-c1ccc(F)c3[nH]ccc13)CN(Cc1ccc(F)cc1Cl)C2(C)C [Compound 1.012]
47 | < 5 nM | CCc1cccc(CC)c1-n1nc2c(c1-c1ccc(F)c3[nH]ccc13)CN(Cc1ccccc1)C2(C)C [Compound 1.021]
48 | < 5 nM | CCc1cccc(CC)c1-n1nc2c(c1-c1cc(F)c(OC)c3[nH]ccc13)CN(Cc1ccc(C(F)(F)F)cc1C(F)(F)F)C2(C)C [Compound 1.002]
49 | < 5 nM | CCc1cccc(CC)c1-n1nc2c(c1-c1ccc(C)c3[nH]ccc13)CN(Cc1ccc(C(F)(F)F)cc1C(F)(F)F)C2(C)C [Compound 1.025]
50 | 5 to 50 nM | CCc1cccc(CC)c1-n1nc2c(c1-c1ccc(F)c3[nH]ccc13)CN(Cc1ccccc1F)C2(C)C [Compound 1.022]
51 | < 5 nM | CCc1cccc(CC)c1-n1nc2c(c1-c1c(F)cc(F)c3[nH]ccc13)CN(Cc1ccc(C(F)(F)F)cc1C(F)(F)F)C2(C)C [Compound 1.037]
52 | < 5 nM | CCc1cccc(CC)c1-n1nc2c(c1-c1ccc(CO)c3[nH]ccc13)CN(Cc1ccc(C(F)(F)F)cc1C(F)(F)F)C2(C)C [Compound 1.004]
53 | < 5 nM | CCc1cccc(CC)c1-n1nc2c(c1-c1ccc(F)c3[nH]ccc13)CN(CC(C)(C)C)C2(C)C [Compound 1.032]
54 | < 5 nM | CCc1cccc(CC)c1-n1nc2c(c1-c1ccc(F)c3[nH]cc(Cl)c13)CN(Cc1ccccc1C(F)(F)F)C2(C)C [Compound 1.026]
55 | < 5 nM | CCc1cccc(CC)c1-n1nc2c(c1-c1ccc(F)c3[nH]ccc13)CN(Cc1ccc(F)cc1)C2(C)C [Compound 1.023]
